The results in this text go back to patent publication US20240150334A1, “HSD17B13 INHIBITORS AND/OR DEGRADERS” (Pfizer Inc., priority 2022, published 2024).

Structures are written as SMILES. Where a name gives a salt, the structure may show the parent alone.

As a reminder, the IC50 is the point on the concentration scale where inhibition reaches its midpoint.

The target of this assay is wild type human HSD17B13 (Homo sapiens (Human), UniProt Q7Z5P4). Nature of the assay: HEK_Beta-Est LCMS_IC50_Tekcel, whole-cell HEK-HSD17B13 inhibition assay, estrone production by LCMS. The assay is classed as cell-based. The note with it: geometric mean, HEK cells stably expressing wild type human HSD17B13, 25 μM FAC beta-estradiol, read-out: HEK_Beta-Est LCMS_IC50—Tekcel GMean IC50. How it is done: HEK_Beta-Est LCMS_IC50_Tekcel
Sequence of wild type human HSD17B13 (Q7Z5P4 20-300): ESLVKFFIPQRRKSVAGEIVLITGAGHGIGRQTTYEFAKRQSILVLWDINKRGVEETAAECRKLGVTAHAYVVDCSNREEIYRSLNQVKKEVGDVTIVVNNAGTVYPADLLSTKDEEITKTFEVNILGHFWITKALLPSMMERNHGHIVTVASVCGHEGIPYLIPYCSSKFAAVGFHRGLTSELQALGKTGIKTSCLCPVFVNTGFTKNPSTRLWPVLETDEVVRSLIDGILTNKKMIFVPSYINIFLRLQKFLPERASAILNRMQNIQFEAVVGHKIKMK
Inhibition potency of test compounds was determined using a whole-cell HEK-HSD17B13 inhibition assay, utilizing a LCMS readout.
HSD17B13 uses the oxidized form of nicotinamide adenine dinucleotide (NAD+) as a cofactor during metabolism of beta-estradiol (substrate), converting NAD+ to the reduced form (NADH) and beta-estradiol to its product (estrone). Estrone production is quantified by LCMS, and used as a measure of HSD17B13 enzyme activity.
([…]: 5% CO2). […] Growth media was then removed from the cell plates and replaced with 10 μL of 2×FAC test compound, and incubated for 1 hour (with lid) at 37° C. […] The reaction was incubated for 2 hours (with lid) at 37° C. […] Amount of product (estrone) was then quantified by LCMS. Data expressed as product area ratio (PAR) were then normalized to control wells using Activity Base (IDBS). Zero percent effect (ZPE) was defined as PAR generated from uninhibited HSD17B13 (vehicle control).
For `COc1cncc(-c2ccc3cn([C@H]4CC[C@H](CNC(=O)c5cc(F)c(O)c(F)c5)CC4)nc3c2)c1` [Example 120, 3,5-difluoro-4-hydroxy-N-({(1r,4r)-4-[6-(5-methoxypyridin-3-yl)-2H-indazol-2-yl]cyclohexyl}methyl) benzamide, trifluoroacetate salt], the IC50 was 250 nM. In the case of `Cc1cccc(-c2noc([C@]34CC[C@](CNC(=O)c5cc(F)c(O)c(F)c5)(CC3)CC4)n2)n1` [Example 194, 3,5-difluoro-4-hydroxy-N-({4-[3-(6-methylpyridin-2-yl)-1,2,4-oxadiazol-5-yl]bicyclo[2.2.2]octan-1-yl}methyl) benzamide] it was 230 nM; in that of `COc1ccc(-c2ccc3cn([C@H]4CC[C@H](CNC(=O)c5cc(F)c(O)c(F)c5)CC4)nc3c2)nc1` [Example 99, 3,5-difluoro-4-hydroxy-N-({(1r,4r)-4-[6-(5-methoxy-pyridin-2-yl)-2H-indazol-2-yl]cyclohexyl}methyl) benzamide, trifluoroacetate salt], 220 nM; in that of `O=C(NC[C@H]1CC[C@H](n2cc3ccc(-c4cnsc4)cc3n2)CC1)c1cc(F)c(O)c(F)c1` [Example 100, 3,5-difluoro-4-hydroxy-N-({(1r,4r)-4-[6-(1,2-thiazol-4-yl)-2H-indazol-2-yl]cyclohexyl}methyl)benzamide], 65 nM. In the case of `COc1nccc(-c2ccc3cn([C@H]4CC[C@H](CNC(=O)c5cc(F)c(O)c(F)c5)CC4)nc3c2)n1` [Example 109, 3,5-difluoro-4-hydroxy-N-({(1r,4r)-4-[6-(2-methoxy-pyrimidin-4-yl)-2H-indazol-2-yl]cyclohexyl}methyl) benzamide] it was 170 nM. To `O=C(NC[C@H]1CC[C@H](n2cc3ccc(-c4csc5cncn45)cc3n2)CC1)c1cc(F)c(O)c(F)c1` [Example 84, 3,5-difluoro-4-hydroxy-N-({(1r,4r)-4-[6-(imidazo[5,1-b][1,3]thiazol-3-yl)-2H-indazol-2-yl]cyclohexyl}methyl) benzamide, trifluoroacetate salt] belongs 390 nM; to `Cn1nc(-c2noc([C@]34CC[C@](CNC(=O)c5cc(F)c(O)c(F)c5F)(CC3)CC4)n2)ccc1=O` [Example 168, 2,3,5-trifluoro-4-hydroxy-N-({4-[3-(1-methyl-6-oxo-1,6-dihydropyridazin-3-yl)-1,2,4-oxadiazol-5-yl]bicyclo[2.2.2]octan-1-yl}methyl) benzamide], 380 nM; to `O=C(NC[C@H]1CC[C@H](n2cc3ccc(-c4ccns4)cc3n2)CC1)c1cc(F)c(O)c(F)c1` [Example 83, 3,5-difluoro-4-hydroxy-N-({(1r,4r)-4-[6-(1,2-thiazol-5-yl)-2H-indazol-2-yl]cyclohexyl}methyl) benzamide], 94 nM.

As to `Cn1cc(-c2ccc3nn([C@H]4CC[C@H](CNC(=O)c5cc(F)c(O)c(F)c5)CC4)cc3c2)cn1` [Example 159, 3,5-difluoro-4-hydroxy-N-({(1r,4r)-4-[5-(1-methyl-1H-pyrazol-4-yl)-2H-indazol-2-yl]cyclohexyl}methyl) benzamide, trifluoroacetate salt], the IC50 was 91 nM. To `O=C(NC[C@H]1CC[C@H](n2cc3ccc(-c4ccn5nccc5c4)cc3n2)CC1)c1cc(F)c(O)c(F)c1` [Example 89, 3,5-difluoro-4-hydroxy-N-({(1r,4r)-4-[6-(pyrazolo[1,5-a]pyridin-5-yl)-2H-indazol-2-yl]cyclohexyl}methyl) benzamide, trifluoroacetate salt] belongs 130 nM; to `O=C(NC[C@H]1CC[C@H](n2cc3cc(-c4ncccn4)ccc3n2)CC1)c1cc(F)c(O)c(F)c1` [Example 154, 3,5-difluoro-4-hydroxy-N-({(1r,4r)-4-[5-(pyrimidin-2-yl)-2H-indazol-2-yl]cyclohexyl}methyl) benzamide], 110 nM.

On to `O=C(NC[C@H]1CC[C@H](n2cc3ccc(-c4cnn5ccccc45)cc3n2)CC1)c1cc(F)c(O)c(F)c1` [Example 80, 3,5-difluoro-4-hydroxy-N-({(1r,4r)-4-[6-(pyrazolo[1,5-a]pyridin-3-yl)-2H-indazol-2-yl]cyclohexyl}methyl) benzamide, trifuoroacetate salt], for which the IC50 turned out to be 200 nM. In the case of `O=C(NC[C@H]1CC[C@H](n2cc3ccc(-c4cncs4)cc3n2)CC1)c1cc(F)c(O)c(F)c1` [Example 96, 3,5-difluoro-4-hydroxy-N-({(1r,4r)-[6-(1,3-thiazol-5-yl)-2H-indazol-2-yl]cyclohexyl}methyl)benzamide] it was 85 nM. To `O=C(NC[C@]12CC[C@](n3cc4ccc(-c5cncnc5)cc4n3)(CC1)CC2)c1cc(F)c(O)c(F)c1` [Example 206, 3,5-difluoro-4-hydroxy-N-({4-[6-(pyrimidin-5-yl)-2H-indazol-2-yl]bicyclo [2.2.2]octan-1-yl}methyl)benzamide] belongs 150 nM; to `O=C(NC[C@H]1CC[C@H](n2cc3ccc(-c4cc(C5CC5)ncn4)cc3n2)CC1)c1cc(F)c(O)c(F)c1` [Example 93, N-({(1r,4r)-4-[6-(6-cyclopropylpyrimidin-4-yl)-2H-indazol-2-yl]cyclohexyl}methyl)-3,5-difluoro-4-hydroxybenzamide], 180 nM.

On to `O=C(NC[C@H]1CC[C@H](n2cc3ccc(-c4ccn5ncnc5c4)cc3n2)CC1)c1cc(F)c(O)c(F)c1` [Example 119, 3,5-difluoro-4-hydroxy-N-({(1r,4r)-4-[6-([1,2,4]triazolo[1,5-a]pyridin-7-yl)-2H-indazol-2-yl]cyclo-hexyl}methyl) benzamide, trifluoroacetate salt], for which the IC50 amounted to 150 nM.

As for `O=C(NC[C@H]1CC[C@H](n2cc3ccc(-n4ccnc4)cc3n2)CC1)c1cc(F)c(O)c(F)c1F` [Example 166, 2,3,5-trifluoro-4-hydroxy-N-({(1r,4r)-4-[6-(1H-imidazol-1-yl)-2H-indazol-2-yl]cyclohexyl}methyl) benzamide, trifluoroacetate salt], the IC50 was determined as 410 nM. In the case of `COc1ccnc(-c2ccc3cn([C@H]4CC[C@H](CNC(=O)c5cc(F)c(O)c(F)c5)CC4)nc3c2)n1` [Example 95, 3,5-difluoro-4-hydroxy-N-({(1r,4r)-4-[6-(4-methoxypyrimidin-2-yl)-2H-indazol-2-yl]cyclohexyl}methyl)benzamide] it was 240 nM; in that of `Cc1nc(-c2ccc3cn([C@H]4CC[C@H](CNC(=O)c5cc(F)c(O)c(F)c5)CC4)nc3c2)cs1` [Example 94, 3,5-difluoro-4-hydroxy-N-({(1r,4r)-4-[6-(2-methyl-1,3-thiazol-4-yl)-2H-indazol-2-yl]cyclohexyl}methyl) benzamide], 140 nM. In the case of `CC(C)c1ncc(-c2ccc3cn([C@H]4CC[C@H](CNC(=O)c5cc(F)c(O)c(F)c5)CC4)nc3c2)o1` [Example 121, 3,5-difluoro-4-hydroxy-N-{[(1r,4r)-4-{6-[2-(propan-2-yl)-1,3-oxazol-5-yl]-2H-indazol-2-yl}cyclohexyl]methyl} benzamide] it was 150 nM. To `Cc1cnc(-c2ccc3cn([C@H]4CC[C@H](CNC(=O)c5cc(F)c(O)c(F)c5)CC4)nc3c2)s1` [Example 115, 3,5-difluoro-4-hydroxy-N-({(1r,4r)-4-[6-(5-methyl-1,3-thiazol-2-yl)-2H-indazol-2-yl]cyclohexyl}methyl) benzamide] belongs 190 nM. With `O=C(NC[C@H]1CC[C@H](n2cc3ccc(-c4csc(C5CC5)n4)cc3n2)CC1)c1cc(F)c(O)c(F)c1` [Example 85, N-({(1r,4r)-4-[6-(2-cyclopropyl-1,3-thiazol-4-yl)-2H-indazol-2-yl]cyclohexyl}methyl)-3,5-difluoro-4-hydroxybenzamide], the half-maximal inhibitory concentration (IC50) was found to be 180 nM. To `O=C(NC[C@H]1CC[C@H](n2cc3ccc(-c4ncc(C5CC5)s4)cc3n2)CC1)c1cc(F)c(O)c(F)c1` [Example 105, N-({(1r,4r)-4-[6-(5-cyclopropyl-1,3-thiazol-2-yl)-2H-indazol-2-yl]cyclohexyl}methyl)-3,5-difluoro-4-hydroxybenzamide] belongs 370 nM; to `Cn1cc(-c2ccn3cc([C@H]4CC[C@H](CNC(=O)c5cc(F)c(O)c(F)c5F)CC4)nc3c2)cn1` [Example 30, 2,3,5-trifluoro-4-hydroxy-N-({(1r,4r)-4-[7-(1-methyl-1H-pyrazol-4-yl)imidazo[1,2-a]pyridin-2-yl]cyclohexyl}methyl) benzamide], 360 nM; to `Cn1cc(-c2ccc3cn([C@]45CC[C@](CNC(=O)c6cc(F)c(O)c(F)c6)(CC4)CC5)nc3c2)cn1` [Example 204, 3,5-difluoro-4-hydroxy-N-({4-[6-(1-methyl-1H-pyrazol-4-yl)-2H-indazol-2-yl]bicyclo[2.2.2]octan-1-yl}methyl)benzamide], 99 nM.

Take `O=C(NC[C@H]1CC[C@H](n2cc3ccc(-c4cn5ccccc5n4)cc3n2)CC1)c1cc(F)c(O)c(F)c1` [Example 103, 3,5-difluoro-4-hydroxy-N-({(1r,4r)-4-[6-(imidazo[1,2-a]pyridin-2-yl)-2H-indazol-2-yl]cyclohexyl}methyl) benzamide, trifluoroacetate salt]: the IC50 came out at 360 nM. Consider `COc1ncc(-c2cc3cn([C@H]4CC[C@H](CNC(=O)c5cc(F)c(O)c(F)c5)CC4)nc3cn2)cn1` [Example 201, 3,5-difluoro-4-hydroxy-N-({(1r,4r)-4-[5-(2-methoxypyrimidin-5-yl)-2H-pyrazolo[3,4-c]pyridin-2-yl]cyclohexyl}methyl) benzamide, trifluoroacetate salt], for which the half-maximal inhibitory concentration (IC50) came to 350 nM.
